# Test results reported in patent US20200281194A1, “A Novel Green Micro-Emulsion for Controlling Fungal Wilt Diseases” (priority 2017, published 2020).
# Test system: FoL (Fusarium wilt of tomato)
# Experiment: Wilt incidence pot study in tomato (AUDPC)
# Assay type: in vivo, Fusarium oxysporum
# Conditions: @ 0.1%
# Protocol: For wilt incidence study, seeds, seedlings and soil are treated with above mentioned three concentrations of microemulsion formulation. In brief, soil is autoclaved and artificially inoculated with Fusarium spores (@ 2.6×10^5 spores/g soil). Seeds are treated with microemulsion formulations by the method used for germination study, but herein, seeds are sowed directly into 1 kg diseased pot. For seedling treatment, healthy eight-leaf staged seedlings of tomato are treated with three respective concentrations of microemulsion while in case of soil treatment; soil of pot is treated @ 5 ml per 150 cc soil. Healthy and untreated seedlings are taken as control. Each treatment has 5 replicates and all the pots are kept in the net house in Micro model, IITD for 45 days. Carbendazim (@0.1%) is taken as chemical control. For accessing the disease progression in the tomato plant, following grading system is used. Symptoms like yellowing of leaves, wilting of plant, height and weight of plant are examined and given a grade by comparing with the control having maximum diseases infection.
# Area under the disease progress curve (AUDPC) is a method to calculate the percentage inhibition of wilt disease and is calculated as:
# AUDPC=Σ[(Ri+1+Ri)/2][ti+1−ti], R=disease rating at the ith observation ti=time (days) since previous ratings at the ith observation, n=total number of observations.
compound,measurement,setting,value
"COC(=O)Nc1nc2ccccc2[nH]1 [carbendazim, Carbendazim]",Disease reduction % of FoL,Seedling treatment,60.02%
same,Disease reduction % of FoL,Soil treatment,71.24%
